molecular target: human serotonin 5-HT6R (Homo sapiens, UniProt P50406); test: Radioligand binding, [3H]-LSD displacement; conditions: Fig. 2; read-out: pKi 5-HT6 (converted)
Sequence (P50406 whole entry): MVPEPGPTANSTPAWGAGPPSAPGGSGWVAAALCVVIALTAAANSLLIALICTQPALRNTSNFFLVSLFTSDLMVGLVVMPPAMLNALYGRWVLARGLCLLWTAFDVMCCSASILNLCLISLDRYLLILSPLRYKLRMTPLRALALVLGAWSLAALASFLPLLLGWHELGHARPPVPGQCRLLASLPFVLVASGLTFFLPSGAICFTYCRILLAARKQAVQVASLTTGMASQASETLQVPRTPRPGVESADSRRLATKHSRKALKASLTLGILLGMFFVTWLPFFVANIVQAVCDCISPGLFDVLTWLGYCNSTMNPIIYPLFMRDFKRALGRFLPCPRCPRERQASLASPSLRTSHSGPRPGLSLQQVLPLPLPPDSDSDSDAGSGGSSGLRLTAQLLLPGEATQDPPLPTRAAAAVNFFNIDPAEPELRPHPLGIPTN

Ki [µM] | SMILES
4.07 | COc1ccc2[nH]cc(-c3cnc[nH]3)c2c1 [1x]
7.76 | CCn1cncc1-c1cn(C)c2ccccc12 [1c]
5.37 | COc1cc(-c2cncn2C)c(OC)cc1I [2f]
8.91 | COc1cccc(-c2cncn2C)c1 [2c]
5.5 | CCn1cncc1-c1cn(C)c2ccc(OC)cc12 [1d]

SMILES | Ki [µM]
CCn1cncc1-c1c[nH]c2cccc(Br)c12 [1k] | 8.71
CCn1cncc1-c1c[nH]c2cc(Br)ccc12 [1j] | 6.92
COc1ccc2[nH]cc(-c3cncn3C3CC3)c2c1 [1h] | 5.25

molecular target: T1, human serotonin 5-HT2A receptor (Homo sapiens, UniProt P28223); test: Radioligand binding, [3H]-ketanserin displacement; conditions: Fig. 2; read-out: pKi 5-HT2A (converted)
T1 construct: host or cells: CHO-K1
T1 sequence (P28223 whole entry): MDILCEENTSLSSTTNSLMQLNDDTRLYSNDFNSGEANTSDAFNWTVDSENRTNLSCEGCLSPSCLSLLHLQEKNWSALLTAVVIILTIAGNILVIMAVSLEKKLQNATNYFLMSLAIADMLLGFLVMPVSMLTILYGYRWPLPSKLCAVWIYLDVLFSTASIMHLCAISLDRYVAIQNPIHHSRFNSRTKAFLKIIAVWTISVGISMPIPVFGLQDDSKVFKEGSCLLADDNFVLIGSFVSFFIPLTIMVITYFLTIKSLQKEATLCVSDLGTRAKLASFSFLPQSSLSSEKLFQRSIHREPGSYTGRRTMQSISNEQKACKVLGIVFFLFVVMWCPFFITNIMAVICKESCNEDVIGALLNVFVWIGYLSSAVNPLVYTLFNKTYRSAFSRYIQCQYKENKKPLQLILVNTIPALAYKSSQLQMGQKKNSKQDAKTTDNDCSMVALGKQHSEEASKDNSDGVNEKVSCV

Ki [µM] | SMILES
7.94 | COc1ccc2[nH]cc(-c3cnc[nH]3)c2c1 [1x]
> 10 | CCn1cncc1-c1cn(C)c2ccccc12 [1c]
> 10 | COc1cc(-c2cncn2C)c(OC)cc1I [2f]
> 10 | COc1cccc(-c2cncn2C)c1 [2c]
> 10 | CCn1cncc1-c1cn(C)c2ccc(OC)cc12 [1d]

SMILES | Ki [µM]
CCn1cncc1-c1c[nH]c2cccc(Br)c12 [1k] | > 10
CCn1cncc1-c1c[nH]c2cc(Br)ccc12 [1j] | > 10
COc1ccc2[nH]cc(-c3cncn3C3CC3)c2c1 [1h] | > 10

molecular target: human dopamine D2LR (Homo sapiens, UniProt P14416); test: Radioligand binding, [3H]-raclopride displacement; conditions: Fig. 2; read-out: pKi D2 (converted)
Sequence (P14416 whole entry): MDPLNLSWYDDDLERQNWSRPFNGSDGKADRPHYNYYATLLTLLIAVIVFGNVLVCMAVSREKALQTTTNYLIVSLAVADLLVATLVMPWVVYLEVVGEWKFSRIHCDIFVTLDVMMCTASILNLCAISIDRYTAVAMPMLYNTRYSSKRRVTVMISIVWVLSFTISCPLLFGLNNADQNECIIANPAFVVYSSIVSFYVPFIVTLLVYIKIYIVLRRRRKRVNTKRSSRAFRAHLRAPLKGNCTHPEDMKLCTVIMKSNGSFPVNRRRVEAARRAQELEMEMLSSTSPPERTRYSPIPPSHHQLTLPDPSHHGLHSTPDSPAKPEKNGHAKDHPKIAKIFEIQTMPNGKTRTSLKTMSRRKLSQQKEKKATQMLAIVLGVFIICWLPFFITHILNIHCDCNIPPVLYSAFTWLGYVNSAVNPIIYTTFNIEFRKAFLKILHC

Ki [µM] | SMILES
6.17 | COc1ccc2[nH]cc(-c3cnc[nH]3)c2c1 [1x]
> 10 | CCn1cncc1-c1cn(C)c2ccccc12 [1c]
6.92 | COc1cc(-c2cncn2C)c(OC)cc1I [2f]
> 10 | COc1cccc(-c2cncn2C)c1 [2c]
> 10 | CCn1cncc1-c1cn(C)c2ccc(OC)cc12 [1d]

SMILES | Ki [µM]
CCn1cncc1-c1c[nH]c2cccc(Br)c12 [1k] | > 10
CCn1cncc1-c1c[nH]c2cc(Br)ccc12 [1j] | > 10
COc1ccc2[nH]cc(-c3cncn3C3CC3)c2c1 [1h] | > 10

molecular target: T2, human serotonin 5-HT1AR (Homo sapiens, UniProt P08908); test: Radioligand binding, [3H]-8-OH-DPAT displacement; conditions: Fig. 2; read-out: pKi 5-HT1A (converted)
T2 sequence (P08908 1-422): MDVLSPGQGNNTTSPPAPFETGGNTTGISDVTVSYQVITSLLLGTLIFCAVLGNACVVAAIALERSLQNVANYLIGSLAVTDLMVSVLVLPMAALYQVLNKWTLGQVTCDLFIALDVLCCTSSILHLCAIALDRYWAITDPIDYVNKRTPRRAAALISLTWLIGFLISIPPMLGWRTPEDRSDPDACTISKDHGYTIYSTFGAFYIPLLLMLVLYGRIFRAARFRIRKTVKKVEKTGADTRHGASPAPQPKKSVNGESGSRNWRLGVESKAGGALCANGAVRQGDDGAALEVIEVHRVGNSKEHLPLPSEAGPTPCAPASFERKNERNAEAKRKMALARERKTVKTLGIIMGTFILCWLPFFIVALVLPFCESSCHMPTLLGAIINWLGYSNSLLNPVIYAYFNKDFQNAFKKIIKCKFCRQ

Ki [µM] | SMILES
6.76 | COc1ccc2[nH]cc(-c3cnc[nH]3)c2c1 [1x]
> 10 | CCn1cncc1-c1cn(C)c2ccccc12 [1c]
> 10 | COc1cc(-c2cncn2C)c(OC)cc1I [2f]
> 10 | COc1cccc(-c2cncn2C)c1 [2c]
5.01 | CCn1cncc1-c1cn(C)c2ccc(OC)cc12 [1d]

SMILES | Ki [µM]
CCn1cncc1-c1c[nH]c2cccc(Br)c12 [1k] | > 10
CCn1cncc1-c1c[nH]c2cc(Br)ccc12 [1j] | > 10
COc1ccc2[nH]cc(-c3cncn3C3CC3)c2c1 [1h] | 1.29

molecular target: human serotonin 5-HT7bR (Homo sapiens, UniProt P34969); test: Radioligand binding, [3H]-5-CT displacement; conditions: not given
Sequence (P34969 1-432 limits assumed): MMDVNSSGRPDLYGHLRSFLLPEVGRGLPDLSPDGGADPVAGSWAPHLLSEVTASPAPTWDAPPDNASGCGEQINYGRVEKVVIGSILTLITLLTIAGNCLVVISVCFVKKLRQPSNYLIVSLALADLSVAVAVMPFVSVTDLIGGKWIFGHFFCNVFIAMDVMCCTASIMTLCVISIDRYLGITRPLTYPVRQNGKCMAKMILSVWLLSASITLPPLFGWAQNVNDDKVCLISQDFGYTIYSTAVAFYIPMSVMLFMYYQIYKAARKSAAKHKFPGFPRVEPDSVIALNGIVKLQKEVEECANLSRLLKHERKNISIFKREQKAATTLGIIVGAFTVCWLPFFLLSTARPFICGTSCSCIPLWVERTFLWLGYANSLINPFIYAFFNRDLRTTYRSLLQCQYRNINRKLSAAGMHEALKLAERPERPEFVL

SMILES | binding to 5-HT7R in words
CCn1cncc1-c1c[nH]c2cccc(Br)c12 [1k] | low affinity
CCn1cncc1-c1c[nH]c2cc(Br)ccc12 [1j] | low affinity
COc1ccc2[nH]cc(-c3cncn3C3CC3)c2c1 [1h] | non-active

same assay, conditions: Fig. 2; read-out: pKi 5-HT7 (converted)

SMILES | Ki [µM]
COc1ccc2[nH]cc(-c3cnc[nH]3)c2c1 [1x] | 1.2
COc1cc(-c2cncn2C)c(OC)cc1I [2f] | > 10
CCn1cncc1-c1c[nH]c2cccc(Br)c12 [1k] | 2.29
CCn1cncc1-c1c[nH]c2cc(Br)ccc12 [1j] | > 10
COc1cccc(-c2cncn2C)c1 [2c] | > 10
COc1ccc2[nH]cc(-c3cncn3C3CC3)c2c1 [1h] | 3.31

same assay, conditions: read-out: Ki 5-HT7

Ki [µM] | SMILES
5.62 | CCn1cncc1-c1cn(C)c2ccccc12 [1c]
> 10 | CCn1cncc1-c1cn(C)c2ccc(OC)cc12 [1d]
